± gives the standard deviation of the averaged measurements.
Columns and labels:
[1] = test system: YST-1; test: drug sensitivity score (DSS, CellTiter-Glo viability, 72 h) (DSS (dimensionless)); higher = more sensitive; extreme values may be limits of the assay
How it was run: (§1)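 For this screen, 384-well plates were preprinted with each compound at five concentrations in 10-fold steps and seeded with MPNST cell lines or primary human Schwann cells at 750–1000 cells per well. Incubation lasted 72 h at 37 °C, 5% CO2, and CellTiter-Glo ATP luminescence, scaled between vehicle and positive-control wells and averaged over duplicates where available, served as viability. Logistic fits with four parameters were applied. Relative IC50 (censored at the top concentration) and drug sensitivity score derive from these fits, and percent inhibition is at the top concentration.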

[2] = test system: S462; test: as above
How it was run: as §1

[3] = test system: HSC2 (primary human Schwann cells); test: as above
How it was run: as §1

[4] = test system: STS26T; test: as above
How it was run: as §1

[5] = test system: HS-Sch-2; test: as above
How it was run: as §1

[6] = test system: HSC1 (primary human Schwann cells); test: as above
How it was run: as §1

[7] = test system: HS-PSS; test: as above
How it was run: as §1

[8] = test system: ST8814; test: as above
How it was run: as §1

[9] = test system: S1507-2; test: as above
How it was run: as §1

[10] = test system: HSC2 (primary human Schwann cells); test: drug sensitivity score (DSS, CellTox-Green cytotoxicity, 72 h) (DSS (dimensionless)); higher = more cytotoxic; extreme values may be limits of the assay
How it was run: (§2)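 MPNST cell lines and primary human Schwann cells were grown for 72 h at 37 °C in 384-well plates containing five 10-fold compound dilutions. CellTox-Green, added before seeding at a final 1:1000 dilution, gave fluorescence from DNA released by disrupted cells, and signals were scaled to vehicle and positive-control wells. Curves were fitted with a four-parameter logistic model. Drug sensitivity score and relative IC50 come from these fits, with IC50 censored at the top concentration.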

[11] = test system: STS26T; test: as above
How it was run: as §2

[12] = test system: HSC1 (primary human Schwann cells); test: as above
How it was run: as §2

[13] = test system: HS-PSS; test: as above
How it was run: as §2

[14] = test system: ST8814; test: as above
How it was run: as §2

[15] = test system: S1507-2; test: as above
How it was run: as §2

[16] = test system: YST-1; test: % inhibition of CellTiter-Glo viability at highest tested concentration (72 h), relative to DMSO and benzethonium chloride controls; higher = more inhibition
How it was run: as §1

[17] = test system: S462; test: as above
How it was run: as §1

[18] = test system: HSC2 (primary human Schwann cells); test: as above
How it was run: as §1

[19] = test system: STS26T; test: as above
How it was run: as §1

[20] = test system: HS-Sch-2; test: as above
How it was run: as §1

[21] = test system: HSC1 (primary human Schwann cells); test: as above
How it was run: as §1

[22] = test system: HS-PSS; test: as above
How it was run: as §1

[23] = test system: ST8814; test: as above
How it was run: as §1

[24] = test system: S1507-2; test: as above
How it was run: as §1

| Compound | drug sensitivity score [1] | drug sensitivity score [2] | drug sensitivity score [3] | drug sensitivity score [4] | drug sensitivity score [5] | drug sensitivity score [6] | drug sensitivity score [7] | drug sensitivity score [8] | drug sensitivity score [9] | drug sensitivity score [10] | drug sensitivity score [11] | drug sensitivity score [12] | drug sensitivity score [13] | drug sensitivity score [14] | drug sensitivity score [15] | % inhibition [16] [%] | % inhibition [17] [%] | % inhibition [18] [%] | % inhibition [19] [%] | % inhibition [20] [%] | % inhibition [21] [%] | % inhibition [22] [%] | % inhibition [23] [%] | % inhibition [24] [%] |
| --- | --- | --- | --- | --- | --- | --- | --- | --- | --- | --- | --- | --- | --- | --- | --- | --- | --- | --- | --- | --- | --- | --- | --- | --- |
| Nc1ccn([C@@H]2O[C@H](CO)[C@@H](O)[C@@H]2O)c(=O)n1 [Cytarabine] (max concentration tested 10000 nM) | 13.2 | 20 ± 0.39 | 14 | 13.8 | 9.14 | 10.8 | 10.2 | 12.1 | 6.29 ± 0.62 | 4.6 | 5.45 | 5.58 | 5.69 | 7.9 | 0.68 ± 0.19 | 69.2 | 96.4 ± 1.9 | 80.3 | 74.7 | 69.3 | 65.1 | 65.1 | 90.2 | 66.4 ± 5.8 |
| Nc1nc(NC2CC2)cc(-c2cccc(Cl)c2Cl)n1 [TH588] (max concentration tested 25000 nM) | 7.77 | 6.18 | 5.92 | 9.6 | 7.91 | 4.07 | 3.03 | 9.42 | 6.86 | 4.06 | 9.84 | 4.29 | 0 | 7.43 | 5.61 | 79.4 | 98.2 | 67 | 102 | 87.8 | 55 | 35.1 | 100 | 78.2 |
| CCN(CC)CCNC(=O)c1c(C)[nH]c(/C=C2\C(=O)Nc3ccc(F)cc32)c1C [Sunitinib] (max concentration tested 1000 nM) | 0 | 0.473 ± 0.41 | 0 | 0 | 0 | 0 | 0 | 0.732 | 0.923 ± 1.3 | 0 | 0 | 0 | 0 | 0 | 17.2 ± 24 | -7.4 | 16.1 ± 0.67 | -10.9 | 8.24 | 6.65 | -2.06 | 11.8 | 14.7 | 17.7 ± 11 |
| COc1cccc2c1C(=O)c1c(O)c3c(c(O)c1C2=O)C[C@@](O)(C(C)=O)C[C@@H]3O[C@H]1C[C@H](N)[C@H](O)[C@H](C)O1 [Daunorubicin] (max concentration tested 1000 nM) | 17.9 | 14.9 ± 0.27 | 12.7 | 12.9 | 10.6 | 10.4 | 9.45 | 9.95 | 9.24 ± 0.51 | 3.16 | 3.13 | 2.35 | 0 | 1.13 | 0 | 101 | 98.64 ± 0.44 | 101 | 98.5 | 102 | 99.9 | 88.2 | 88.3 | 96.11 ± 0.088 |
| CCOc1cc2ncc(C#N)c(Nc3ccc(OCc4ccccn4)c(Cl)c3)c2cc1NC(=O)/C=C/CN(C)C [Neratinib] (max concentration tested 1000 nM) | 2.34 | 5.12 ± 0.93 | 5.85 | 3.09 | 5.51 | 4.77 | 6.05 | 3.74 | 4 ± 1.6 | 0 | 0 | 0 | 0 | 0 | 0 | 46.7 | 64.8 ± 7.9 | 75.8 | 38.6 | 65.3 | 70.6 | 65.7 | 40.5 | 49.1 ± 15 |
| CCc1cnn2c(NCc3ccc[n+]([O-])c3)cc(N3CCCC[C@H]3CCO)nc12 [Dinaciclib] (max concentration tested 1000 nM) | 25.2 | 24.4 ± 0.71 | 19.9 | 21.6 | 25.1 | 16.9 | 21 | 15 | 15 ± 1.9 | 7.57 | 14.8 | 5.96 | 5.02 | 5.45 | 2.29 ± 3.1 | 99.5 | 90.8 ± 2.7 | 86.4 | 92.7 | 101 | 83.5 | 84.2 | 80.5 | 76.6 ± 1.6 |
| O=[N+]([O-])c1ccc2c(c1)S(=O)(=O)C=C2 [Stattic] (max concentration tested 50000 nM) | 17.4 | 11.3 ± 3.2 | 13.9 | 13.7 | 18.6 | 16.8 | 18.7 | 14.9 | 7.88 ± 2.4 | 9.26 | 12 | 15.6 | 12.8 | 7.96 | 5.93 ± 1.3 | 101 | 96.03 ± 0.43 | 98.3 | 95.6 | 100 | 98.5 | 101 | 94.6 | 95.7 ± 1.3 |
| S=P(N1CC1)(N1CC1)N1CC1 [Thio-TEPA] (max concentration tested 50000 nM) | 0 | 0 | 0 | 0.888 | 0.99 | 0 | 0 | 0.888 | 0 | 0 | 0 | 0.888 | 0 | 0 | 0.0053 ± 0.0075 | 9.03 | -14.47 ± 0.14 | 1.51 | -2.04 | 9.72 | 2.2 | 3.83 | -6.39 | -14.5 ± 2.9 |
| CC(C)(C)c1cnc(CSc2cnc(NC(=O)C3CCNCC3)s2)o1 [SNS-032] (max concentration tested 10000 nM) | 29.4 | 36.8 ± 1.5 | 38 | 31.5 | 27.9 | 36.9 | 25.9 | 24.5 | 18.6 ± 1.5 | 14.3 | 23.2 | 12.8 | 1.68 | 14.4 | 0 | 99.9 | 104 ± 0.55 | 86.5 | 97.5 | 98.6 | 79.4 | 70.5 | 87.2 | 80.6 ± 3.5 |
| Nc1nc(Cl)nc2c1ncn2[C@H]1C[C@H](O)[C@@H](CO)O1 [Cladribine] (max concentration tested 1000 nM) | 2.87 | 0.676 ± 0.56 | 6.3 | 3.75 | 3.37 | 5.81 | 1.59 | 0.423 | 0.0035 ± 0.005 | 5.38 | 0.902 | 4.05 | 0.65 | 0.837 | 4.43 ± 6.3 | 54.4 | 24.7 ± 8.6 | 71.9 | 52.5 | 67.9 | 61.2 | 38.4 | 21.3 | 9.03 ± 3 |
| COc1cc([C@@H]2c3cc4c(cc3[C@@H](O[C@@H]3O[C@@H]5CO[C@@H](c6cccs6)O[C@H]5[C@H](O)[C@H]3O)[C@H]3COC(=O)[C@H]23)OCO4)cc(OC)c1O [Teniposide] (max concentration tested 10000 nM) | 22.9 | 23.7 ± 0.38 | 22.8 | 17.5 | 14 | 22.2 | 6.82 | 17.7 | 15.6 ± 3.6 | 9.8 | 11 | 11 | 1.46 | 14.7 | 8.49 ± 4.7 | 88.2 | 107.1 ± 0.24 | 100 | 93.7 | 94.8 | 92.8 | 68.2 | 87.2 | 92.44 ± 0.6 |
| O=C(O)CNC(=O)c1c(O)c2ccccc2n(Cc2ccccc2)c1=O [IOX-2] (max concentration tested 50000 nM) | 0.01 | 0.3 ± 0.38 | 1.03 | 0.326 | 6.06 | 0 | 5.08 | 2.35 | 1.81 ± 1.5 | 0 | 0 | 0 | 0 | 0.888 | 0 | 12 | 12.2 ± 1.9 | 20.2 | 16.4 | 89 | 9.77 | 65 | 30.5 | 26.3 ± 12 |
| C=C1C[C@@H]2[C@H](CC[C@]3(C)C(=O)CC[C@@H]23)[C@@]2(C)C=CC(=O)C=C12 [Exemestane] (max concentration tested 10000 nM) | 0 | 0.804 ± 0.28 | 0 | 0 | 0.78 | 0 | 1.87 | 0 | 0.225 ± 0.26 | 0 | 0 | 0 | 0 | 0 | 0 | -11.7 | 22.1 ± 2 | 6.18 | 9.39 | 22.9 | 3.19 | 26.7 | 5.32 | 12 ± 1.6 |

Source: the supplement of paper PMC5579334
